# Experimental data published in PubChem BioAssay (NCI).
#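 Where inhibition never reached the appropriate level, the endpoint shown equals the highest concentration tested. Otherwise, values were interpolated linearly from a five-concentration, 48-hour dose response in 96-well plates. At the GI50, growth is halved. TGI: total growth inhibition.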
# Tests used:
# Test in all cases: NCI tumour cell line growth inhibition, 48 h
# UACC-257 melanoma = test system: UACC-257 melanoma
# SNB-19 CNS = test system: SNB-19 CNS
# CCRF-CEM leukemia = test system: CCRF-CEM leukemia
# HT29 colon = test system: HT29 colon
# ACHN renal = test system: ACHN renal
# OVCAR-8 ovarian = test system: OVCAR-8 ovarian
# SK-MEL-28 melanoma = test system: SK-MEL-28 melanoma
# SF-268 CNS = test system: SF-268 CNS
# U251 CNS = test system: U251 CNS
# HCT-116 colon = test system: HCT-116 colon
# BT-549 breast = test system: BT-549 breast
# A549 NSCLC = test system: A549 NSCLC
# OVCAR-4 ovarian = test system: OVCAR-4 ovarian
# HCT-15 colon = test system: HCT-15 colon
# HOP-92 NSCLC = test system: HOP-92 NSCLC
# SF-539 CNS = test system: SF-539 CNS
# MOLT-4 leukemia = test system: MOLT-4 leukemia
# SK-MEL-2 melanoma = test system: SK-MEL-2 melanoma
# SK-OV-3 ovarian = test system: SK-OV-3 ovarian
# SF-295 CNS = test system: SF-295 CNS
# HCC-2998 colon = test system: HCC-2998 colon
# SN12C renal = test system: SN12C renal
# M14 melanoma = test system: M14 melanoma
# TK-10 renal = test system: TK-10 renal
# HL-60(TB) leukemia = test system: HL-60(TB) leukemia
# NCI-H226 lung = test system: NCI-H226 lung
# SNB-75 CNS = test system: SNB-75 CNS
# SW-620 colon = test system: SW-620 colon
# NCI-H522 lung = test system: NCI-H522 lung
# SR leukemia = test system: SR leukemia
# EKVX NSCLC = test system: EKVX NSCLC
# MALME-3M melanoma = test system: MALME-3M melanoma
# UO-31 renal = test system: UO-31 renal
# HOP-62 NSCLC = test system: HOP-62 NSCLC
# NCI-H460 lung = test system: NCI-H460 lung
# MDA-MB-435 = test system: MDA-MB-435
# PC-3 prostate = test system: PC-3 prostate
# 786-0 renal = test system: 786-0 renal
# T-47D breast = test system: T-47D breast
# KM12 colon = test system: KM12 colon
# RPMI-8226 leukemia = test system: RPMI-8226 leukemia
# OVCAR-5 ovarian = test system: OVCAR-5 ovarian
# SK-MEL-5 melanoma = test system: SK-MEL-5 melanoma
# DU-145 prostate = test system: DU-145 prostate
# UACC-62 melanoma = test system: UACC-62 melanoma
# A498 renal = test system: A498 renal
# CAKI-1 renal = test system: CAKI-1 renal
# MCF7 breast = test system: MCF7 breast
# IGROV1 ovarian = test system: IGROV1 ovarian
# MDA-MB-231 breast = test system: MDA-MB-231 breast
# HS 578T breast = test system: HS 578T breast
# RXF 393 renal = test system: RXF 393 renal
# COLO 205 colon = test system: COLO 205 colon
# NCI-H23 lung = test system: NCI-H23 lung
# NCI/ADR-RES ovarian = test system: NCI/ADR-RES ovarian
smiles,measurement,setting,value
C=CCN(C)S(=O)(=O)/N=C1\NC(=O)NC1=C(Cl)Cl,GI50,UACC-257 melanoma,3.56 µM
same,TGI,UACC-257 melanoma,17 µM
same,GI50,SNB-19 CNS,2.88 µM
same,TGI,SNB-19 CNS,9.29 µM
same,GI50,CCRF-CEM leukemia,1.94 µM
same,TGI,CCRF-CEM leukemia,4.68 µM
same,GI50,HT29 colon,2.15 µM
same,TGI,HT29 colon,4.87 µM
same,GI50,ACHN renal,1.77 µM
same,TGI,ACHN renal,3.18 µM
same,GI50,OVCAR-8 ovarian,2.33 µM
same,TGI,OVCAR-8 ovarian,5.69 µM
same,GI50,SK-MEL-28 melanoma,1.78 µM
same,TGI,SK-MEL-28 melanoma,3.26 µM
same,GI50,SF-268 CNS,3.17 µM
same,TGI,SF-268 CNS,10.7 µM
same,GI50,U251 CNS,1.87 µM
same,TGI,U251 CNS,4.05 µM
same,GI50,HCT-116 colon,1.84 µM
same,TGI,HCT-116 colon,3.55 µM
same,GI50,BT-549 breast,2.1 µM
same,TGI,BT-549 breast,4.49 µM
same,GI50,A549 NSCLC,5.27 µM
same,TGI,A549 NSCLC,24 µM
same,GI50,OVCAR-4 ovarian,1.82 µM
same,TGI,OVCAR-4 ovarian,3.36 µM
same,GI50,HCT-15 colon,1.63 µM
same,TGI,HCT-15 colon,3.22 µM
same,GI50,HOP-92 NSCLC,1.76 µM
same,TGI,HOP-92 NSCLC,3.4 µM
same,GI50,SF-539 CNS,1.79 µM
same,TGI,SF-539 CNS,3.3 µM
same,GI50,MOLT-4 leukemia,2.36 µM
same,TGI,MOLT-4 leukemia,5.93 µM
same,GI50,SK-MEL-2 melanoma,2.9 µM
same,TGI,SK-MEL-2 melanoma,7.76 µM
same,GI50,SK-OV-3 ovarian,17 µM
same,TGI,SK-OV-3 ovarian,31 µM
same,GI50,SF-295 CNS,13.6 µM
same,TGI,SF-295 CNS,26.7 µM
same,GI50,HCC-2998 colon,1.76 µM
same,TGI,HCC-2998 colon,3.43 µM
same,GI50,SN12C renal,1.77 µM
same,TGI,SN12C renal,3.29 µM
same,GI50,M14 melanoma,1.89 µM
same,TGI,M14 melanoma,3.73 µM
same,GI50,TK-10 renal,9.07 µM
same,TGI,TK-10 renal,> 100 µM
same,GI50,HL-60(TB) leukemia,2.06 µM
same,TGI,HL-60(TB) leukemia,5.31 µM
same,GI50,NCI-H226 lung,2.09 µM
same,TGI,NCI-H226 lung,4.63 µM
same,GI50,SNB-75 CNS,1.82 µM
same,TGI,SNB-75 CNS,13.1 µM
same,GI50,SW-620 colon,1.9 µM
same,TGI,SW-620 colon,3.72 µM
same,GI50,NCI-H522 lung,1.97 µM
same,TGI,NCI-H522 lung,4.16 µM
same,GI50,SR leukemia,0.693 µM
same,TGI,SR leukemia,6.68 µM
same,GI50,EKVX NSCLC,1.82 µM
same,TGI,EKVX NSCLC,3.64 µM
same,GI50,MALME-3M melanoma,1.85 µM
same,TGI,MALME-3M melanoma,3.58 µM
same,GI50,UO-31 renal,2.82 µM
same,TGI,UO-31 renal,11.9 µM
same,GI50,HOP-62 NSCLC,3.28 µM
same,TGI,HOP-62 NSCLC,14.4 µM
same,GI50,NCI-H460 lung,2.71 µM
same,TGI,NCI-H460 lung,7.1 µM
same,GI50,MDA-MB-435,1.93 µM
same,TGI,MDA-MB-435,3.86 µM
same,GI50,PC-3 prostate,2.35 µM
same,TGI,PC-3 prostate,6.2 µM
same,GI50,786-0 renal,2.39 µM
same,TGI,786-0 renal,5.79 µM
same,GI50,T-47D breast,3.25 µM
same,TGI,T-47D breast,> 100 µM
same,GI50,KM12 colon,0.437 µM
same,TGI,KM12 colon,25.6 µM
same,GI50,RPMI-8226 leukemia,0.404 µM
same,TGI,RPMI-8226 leukemia,9.84 µM
same,GI50,OVCAR-5 ovarian,1.69 µM
same,TGI,OVCAR-5 ovarian,3.13 µM
same,GI50,SK-MEL-5 melanoma,2 µM
same,TGI,SK-MEL-5 melanoma,4.21 µM
same,GI50,DU-145 prostate,4.08 µM
same,TGI,DU-145 prostate,13.6 µM
same,GI50,UACC-62 melanoma,1.75 µM
same,TGI,UACC-62 melanoma,3.39 µM
same,GI50,A498 renal,12 µM
same,TGI,A498 renal,24.6 µM
same,GI50,CAKI-1 renal,1.72 µM
same,TGI,CAKI-1 renal,3.15 µM
same,GI50,MCF7 breast,0.387 µM
same,TGI,MCF7 breast,> 100 µM
same,GI50,IGROV1 ovarian,1.84 µM
same,TGI,IGROV1 ovarian,3.65 µM
same,GI50,MDA-MB-231 breast,1.86 µM
same,TGI,MDA-MB-231 breast,3.42 µM
same,GI50,HS 578T breast,3.64 µM
same,TGI,HS 578T breast,30.1 µM
same,GI50,RXF 393 renal,1.7 µM
same,TGI,RXF 393 renal,3.37 µM
same,GI50,COLO 205 colon,2.02 µM
same,TGI,COLO 205 colon,4.37 µM
same,GI50,NCI-H23 lung,1.85 µM
same,TGI,NCI-H23 lung,3.6 µM
same,GI50,NCI/ADR-RES ovarian,2.12 µM
same,TGI,NCI/ADR-RES ovarian,4.91 µM
